In patent publication US5795897A, “Oxohexyl methylxanthine compounds” (Cell Therapeutics, Inc., priority 1994, dated 1998):
Entries after “also recorded” stand apart in the source; their conditions may differ.

Tests used:
[1] = test system: L929 murine fibroblast cells; assay: L929 TNF cytotoxicity assay (protection, fluorescent viability dye); assay type: cell-based; settings: TNF-α 500 pg/ml, 40 hrs at 37° C; 2 hrs preincubation; FIG. 1
Method: The cells plus (or minus) drug plus TNF were incubated for 40 hrs at 37° C.

[2] = test system: U937 cells to TNF activated human umbilical vein endothelial cells (HUVEC); assay: Adhesion of U937 cells to TNF-activated HUVEC; assay type: cell-based; settings: FIG. 2
Method: This example illustrates the effects of CT1505 to inhibit adhesion of U937 cells to TNF-activated HUVEC cells In this experiment, HUVEC cells were induced with human TNF-α(20ng/ml) and incubated with drug (CT1505) at varying concentrations for 14-16 hrs. U937 cells (a human monocyte cell line) were incubated and labeled with BCECF (10 μg/ml), a fluorescent dye. The U937 cell preparation (2.5×10^4 cells per well) was layered on top of the activated HUVEC cells. The cells were reverse spun to remove partially adhering and nonadhering U937 cell. The adherent U937 cells were measured by fluorescence on a fluorescent plate reader.

[3] = test system: LD-2 cells, a human malignant melanoma cell line; assay: Cytotoxicity on LD-2 cells; assay type: cell-based; settings: various concentrations, FIG. 3
Method: The cells were treated with various concentrations of CT1505 and later stained for cell viability with a fluorescence stain.
(§1) 1-(5-oxohexyl)-3-methylxanthine was investigated for cytotoxicity to determine appropriate doses for biological activity assays and to prevent cytotoxic reactions in in vitro assays when characterizing activity. Cells (e.g., NIH-3T3, Ras transformed 3T3 cells, malignant melanoma LD2 cells, etc.) are added to microtiter plates and drug is added about two days after plating. Cell viability is determined using a fluorescent viability stain (2', 7'-bis-(2-carboroxyethyl)-5-(and -6)-carboxyfluorescein acetoxymethyl ester, BCECF excitation 488 nm and emission 525 nm) 24,48 or 72 hours after addition of the drug.
This example illustrates that CT1505 has cytotoxic activity for the LD-2 tumor cell line. Cytotoxicity of LD-2 cells was determined with concentrations of CT1505 up to 1.0 mM (see FIG. 3).

NIH-3T3 cells = assay: Cytotoxicity on NIH-3T3 cells; assay type: cell-based; settings: various concentrations, FIG. 4
Method: (§2) The cells were treated with various concentrations of CT1505 (in the mM range on a log scale) and later stained for cell viability with a fluorescence stain.
as §1
(§3) This example illustrates that CT1505 has cytotoxic activity for NIH-3T3 and NIH-Ras transformed tumor cells. Cytotoxicity of the cells was determined with concentrations of CT1505 up to 1.0 mM (see FIG. 4).

NIH-3T3 Ras cells = assay: Cytotoxicity on Ras transformed NIH-3T3 cells; assay type: cell-based; settings: various concentrations, FIG. 4
Method: as §2, §1, §3

[4] = test system: PBMC (peripheral blood mononuclear cells); assay: Mixed lymphocyte reaction; assay type: cell-based, human; settings: CT1505 versus PTX, FIG. 5
Text: Various in vitro assays can be used to measure effects of 1-(5-oxohexyl)-3methylxanthine to module immune activity and have antitumor activity using a variety of cellular types. For example, a mixed lymphocyte reaction (MLR) provides a valuable screening tool to determine biological activity of 1-(5-oxohexyl)-3-methylxanthine. In the MLR, PBMCs (peripheral blood mononuclear cells) are obtained by drawing whole blood from healthy volunteers in a heparinized container and diluted with an equal volume of hanks balanced salt solution (HBSS). This mixture is layered on a sucrose density gradient, such as a Ficoll-Hypaque® gradient (specific gravity 1.08), and centrifuged at 1000×g for 25 minutes at room temperature or cooler. PBMC are obtained from a band at a plasma-Ficoll interface, separated and washed at least twice in a saline solution, such as HBSS. Contaminating red cells are lysed, such as by ACK lysis for 10 min at 37° C., and the PBMCs are washed twice in HBSS. The pellet of purified PBMCs is resuspended in complete medium, such as RPMI 1640 plus 20% human inactivated serum. Proliferative response of PBMC to allogeneic stimulation is determined in a two-way MLR performed in a 96-well microtiter plate. […] At the conclusion of the incubation tritiated thymidine is added (for example, 1 μCi/well of 40 to 60 Ci/mmole) and proliferation determined by liquid scintillation counting. […]

[5] = test system: synaptosomes stimulated with acetylcholine and/or epinephrine (PA and DAG); assay: PA and DAG levels in stimulated synaptosomes; assay type: biochemical
Method: (§4) One in vitro assay measures inhibition of the relevant enzymes lysophosphatidic acid acyltransferase (LPAAT) and phosphatidic acid phosphoryl hydrolase (PAPH). The assay involves incubating of target cells with a primary stimulus (e.g., a variety of cytokines, growth factors, oncogene products, putative therapeutic agents, irradiation, viral infection, toxins, bacterial infection and the products thereof, and any stimulus which, if not counteracted, has a deleterious effect on the target cell) in the presence or absence of 1-(5-oxohexyl)-3-methylxanthineat varying dosage levels. Target cells include, for example, subcellular entities, such as, microsomes derived from mesenchymal and/or ectodermal cells, particularly microsomes from marrow stromal cells or human or rat mesangial cells; microsomes or synaptosomes derived from bovine brain; plasma membrane-enriched microsomes or plasma membranes derived as described in Bursten et al. (J. Biol. Chem. […]:20732-20743, 1991) detergent-solubilized microsomes; synaptosomes, and membranes or other cell preparations solubilized using, for example, NP-40,Miranal, SDS or other neutral detergents; and detergent-solubilized or further purified preparations of cell proteins, including the proteins LPAAT and/or PAPH. […] Thus, the relevant unsaturated (non-arachidonic) PA and DAG subspecies may be detected. […]

PA and DAG = assay: Elevation of PA and DAG upon primary stimulus; assay type: cell-based; settings: e.g. interleukin-1 or TNF
Method: as §4

[6] = test system: polymorphonuclear leukocytes; settings: in response to a stimulator of chemotaxis; U.S. Pat. No. 4,636,507; cited from earlier work
[7] = U.S. Pat. Nos 4,515,795 and 4,576,947; cited from earlier work
TNF = settings: normal volunteers; cited from earlier work
certain cytokines = settings: U.S. Pat. Nos. 4,965,271 and 5,096,906; cited from earlier work

Compound	protection of fibroblast cells from TNF cytotoxicity [1]	concentration range of adhesion inhibitory activity ([2]; TNF-activated HUVEC)	inhibition of adhesion of U937 cells to activated HUVEC ([2]; TNF-α 20 ng/ml, 14-16 hrs)	cytotoxicity [3]	cytotoxicity (NIH-3T3 cells)	cytotoxicity (NIH-3T3 Ras cells)	immune modulating activity [4]	effect on enhanced PA and DAG levels [5]	effect on elevation of PA and DAG levels (PA and DAG)	chemotaxis in polymorphonuclear leukocytes [6]	cerebral blood flow [7]	TNF levels (TNF)	activity of certain cytokines to affect chemotaxis (certain cytokines)
CC(=O)CCCCn1c(=O)c2[nH]cnc2n(C)c1=O [CT1505, 1-(5-oxohexyl)-3-methylxanthine]	protected the fibroblast cells from TNF cytotoxicity better than PTX and much better than the control cells	tenths of mM	inhibits adhesion of U937 cells to TNF activated human umbilical vein endothelial cells; also recorded: inhibited the inflammatory response of the activated HUVEC cells to adhere U937 monocytes in a dose response fashion	cytotoxic at higher concentrations	cytotoxic at higher concentrations	cytotoxic at higher concentrations	more potent immune modulating activity with CT1505 than with PTX; also recorded: more potent drug for cause immune modulating activity than was PTX	able to decrease enhanced levels of a relevant PA and DAG	reverses this elevation				
CC(O)CCCCn1c(=O)c2c(ncn2C)n(C)c1=O (centres unmarked) [M1, 1-(5-hydroxyhexyl)-3,7-dimethylxanthine]										stimulate chemotaxis	increasing cerebral blood flow		
CC(=O)CCCCn1c(=O)c2c(ncn2C)n(C)c1=O [PTX, 1-(5-oxohexyl)-3,7-dimethylxanthine]										stimulate chemotaxis		TNF levels were higher among PTX recipients	inhibit activity of certain cytokines
